According to PubChem BioAssay (NCI):
Where “and” joins values, the source holds several entries; their conditions need not be identical. Identical values can stand only once.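 Dose response: 5 concentrations. Exposure: 48 h. Format: 96-well plates. Endpoint: linear interpolation; highest concentration if not reached. GI50 = concentration required for 50% inhibition of growth. TGI denotes the concentration required for complete inhibition of growth.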

Legend:
Assay in all cases: NCI anticancer screen, dose series, 48 h
MALME-3M melanoma = system: MALME-3M melanoma
UO-31 renal = system: UO-31 renal
HOP-92 NSCLC = system: HOP-92 NSCLC
CAKI-1 renal = system: CAKI-1 renal
LOX IMVI melanoma = system: LOX IMVI melanoma
RXF 393 renal = system: RXF 393 renal
OVCAR-8 ovarian = system: OVCAR-8 ovarian
HOP-62 NSCLC = system: HOP-62 NSCLC

SMILES	GI50 (MALME-3M melanoma) [µM]	TGI (MALME-3M melanoma)	GI50 (UO-31 renal)	TGI (UO-31 renal)	GI50 (HOP-92 NSCLC) [µM]	TGI (HOP-92 NSCLC)	GI50 (CAKI-1 renal) [µM]	TGI (CAKI-1 renal)	GI50 (LOX IMVI melanoma)	TGI (LOX IMVI melanoma)	GI50 (RXF 393 renal) [µM]	TGI (RXF 393 renal)	GI50 (OVCAR-8 ovarian) [µM]	TGI (OVCAR-8 ovarian)	GI50 (HOP-62 NSCLC) [µM]	TGI (HOP-62 NSCLC)
CC1(C)CCC2=C(O1)c1ccccc1C(=O)C2=O	1.51	2.84 µM and 0.974 µM	1.54 µM and 1.05 µM	2.89 µM and 2.23 µM	1.72	3.33 µM and 10.4 µM	1.74	3.13 µM and 2.47 µM	0.33 µM and 0.309 µM	1.31 µM and 0.934 µM	1.66	3.04 µM and 2.94 µM	0.53	2.27 µM and 1.59 µM	1.82	4.14 µM and 1.48 µM
C[C@]12CC[C@H](O)C[C@H]1CC[C@@H]1[C@@H]2CC[C@]2(C)[C@@H](C3=CC(=O)OC3)[C@@H](O)C[C@]12O		4.23 µM		2.26 µM		> 100 µM		3.15 µM		12 µM		3.51 µM		14.6 µM		2.48 µM
COc1ccc(C(=O)c2cc(OC)c(OC)c(OC)c2)cc1/C=C/C(=O)c1ccc(OC)c(OC)c1					1.69	58 µM	0.829	> 100 µM	0.559 µM	4.75 µM	> 100	> 100 µM	1.85	> 100 µM	34.1	> 100 µM
O=C1NC(=O)C(=C/C=C/c2ccccc2)C(=O)N1									1.55 µM	3.3 µM	1.39	2.71 µM	3.01	17.8 µM	12	25.5 µM
CCCCCCCCCCCCCC1=NCCN1CCO	12.7	30.5 µM	2.46 µM	6.16 µM	3.65	23.6 µM	2.34	7.27 µM			2.72	7.43 µM	3.4	> 28.1 µM	5.62	12.7 µM
c1cc2[nH]ncc2cc1-c1nc2ccc3[nH]ncc3c2c2c1CCCC2	1.08	4.22 µM	1.33 µM	4.54 µM	0.966	4.58 µM	0.434	5.62 µM	0.811 µM	4.54 µM	0.822	2.86 µM	2.66	15.9 µM	1.39	9.11 µM
CCOC(=O)n1cc(C2=C(c3cn(C)c4ccccc34)COC2=O)c2ccccc21	0.0508	> 100 µM	0.0781 µM	> 100 µM			0.0492	18.5 µM	0.132 µM	> 96.6 µM	0.0356	0.377 µM	0.312	> 100 µM	0.159	20.4 µM
Cc1ccccc1-n1ncc(C(=O)c2ccccc2)c1N	> 25	> 25 µM	> 25 µM	> 25 µM	4.2	> 25 µM	> 25	> 25 µM	> 25 µM	> 25 µM	> 25	> 25 µM	> 25	> 25 µM	> 25	> 25 µM
